Publication PMC8609006, “Design of modular autoproteolytic gene switches responsive to anti-coronavirus drug candidates” (Nature Communications, 2021)

Target: T1, SARS-CoV-2 Mpro (Mpro(S2), 3CLpro) (Severe acute respiratory syndrome coronavirus 2, UniProt P0DTD1)
T1 construct: gene rep; mature Mpro (nsp5) cut from polyprotein pp1a/pp1ab, human codon-optimized, fused N-terminally to TetR-MproCSOPT-VP64 (pNF167), expressed in HEK293T; TAGS plasmids OK425851-OK425853 (not assigned singly)
Type: cell-based

## CC(C)(C)NC(=O)N[C@H](C(=O)N1C[C@H]2[C@@H]([C@H]1C(=O)NC(CC1CCC1)C(=O)C(N)=O)C2(C)C)C(C)(C)C (stereo partly shown) [Boceprevir]
  Mpro-TAGS nanoLuc gain-of-signal reporter in HEK293T cells, 24 h: GRL-0496 and Boceprevir only slightly induced gene expression
